Experiments:
Cholinesterase = Cholinesterase (Equus caballus, UniProt P81908); assay: Inhibition of horse serum BChE after 15 mins by Ellman's method
Acetylcholinesterase = Acetylcholinesterase (Electrophorus electricus, UniProt O42275)
Acetylcholinesterase, sequence (O42275 whole entry): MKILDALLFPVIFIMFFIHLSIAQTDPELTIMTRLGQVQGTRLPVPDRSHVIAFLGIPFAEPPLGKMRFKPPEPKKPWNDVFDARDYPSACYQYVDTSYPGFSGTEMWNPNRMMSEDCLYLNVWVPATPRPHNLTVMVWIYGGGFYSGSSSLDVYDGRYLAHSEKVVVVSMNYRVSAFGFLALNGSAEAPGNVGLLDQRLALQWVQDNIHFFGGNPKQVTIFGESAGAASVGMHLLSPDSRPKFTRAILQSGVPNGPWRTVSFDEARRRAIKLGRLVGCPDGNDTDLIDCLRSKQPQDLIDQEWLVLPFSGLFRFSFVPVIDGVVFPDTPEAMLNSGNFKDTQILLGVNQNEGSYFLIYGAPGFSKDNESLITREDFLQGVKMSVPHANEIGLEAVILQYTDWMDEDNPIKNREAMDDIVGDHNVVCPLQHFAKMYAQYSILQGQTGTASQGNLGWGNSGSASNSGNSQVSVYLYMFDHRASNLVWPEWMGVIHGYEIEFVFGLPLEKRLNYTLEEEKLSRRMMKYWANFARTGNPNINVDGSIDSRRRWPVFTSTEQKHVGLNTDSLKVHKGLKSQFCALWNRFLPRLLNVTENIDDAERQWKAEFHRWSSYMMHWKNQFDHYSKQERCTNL
Description: Inhibition of electric eel AChE after 15 mins by Ellman's method

Cholinesterase, sequence (P81908 whole entry): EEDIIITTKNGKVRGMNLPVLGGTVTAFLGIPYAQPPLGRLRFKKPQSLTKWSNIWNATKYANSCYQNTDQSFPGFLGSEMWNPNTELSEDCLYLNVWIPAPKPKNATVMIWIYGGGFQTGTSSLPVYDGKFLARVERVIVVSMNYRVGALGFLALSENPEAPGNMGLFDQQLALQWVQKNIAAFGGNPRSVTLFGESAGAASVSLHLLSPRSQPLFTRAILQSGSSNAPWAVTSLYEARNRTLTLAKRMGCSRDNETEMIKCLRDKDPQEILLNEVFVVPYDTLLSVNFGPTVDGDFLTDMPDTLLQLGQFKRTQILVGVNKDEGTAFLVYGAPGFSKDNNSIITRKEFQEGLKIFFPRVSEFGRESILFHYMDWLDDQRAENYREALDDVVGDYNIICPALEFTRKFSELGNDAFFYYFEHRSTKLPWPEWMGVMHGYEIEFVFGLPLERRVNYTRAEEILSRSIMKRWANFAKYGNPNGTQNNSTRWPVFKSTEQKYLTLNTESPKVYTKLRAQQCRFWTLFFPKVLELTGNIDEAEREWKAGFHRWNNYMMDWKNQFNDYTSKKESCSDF

Question: `O=C(N/N=C/c1ccc(O)cc1O)c1c(O)c2c(Cl)cccc2[nH]c1=O` was tested. Which IC50 (Cholinesterase) did it give?
Answer: Its IC50 is greater than 30 µM.

Question: What about the IC50 (Acetylcholinesterase) of the same molecule?
Answer: Its IC50 is 12 µM.

Question: With `Cn1c(=O)c(C(=O)NCCNCCNCCN)c(O)c2ccccc21` as the molecule, how does the IC50 (Cholinesterase) read?
Answer: Its IC50 is 5.2 µM.

Question: What about the IC50 (Acetylcholinesterase) of the same molecule?
Answer: Its IC50 is greater than 30 µM.

Question: For `CC1=C2C(=O)Nc3c(cccc3[N+](=O)[O-])C2NC(=O)N1C` (racemic), which IC50 (Cholinesterase) is on record?
Answer: Its IC50 is greater than 30 µM.

Question: And the IC50 (Acetylcholinesterase)?
Answer: Its IC50 is 8 µM.

Question: `CCN1C(=O)NC2C(=C1C)C(=O)Nc1c2cccc1[N+](=O)[O-]` (racemic) was tested. Which IC50 (Cholinesterase) did it give?
Answer: The IC50 was greater than 30 µM.

Question: What about the IC50 (Acetylcholinesterase) of the same molecule?
Answer: Its IC50 is 6 µM.

Question: Which IC50 (Cholinesterase) does the source give for `NCCNCCNCCNC(=O)c1c(O)c2ccccc2[nH]c1=O` here?
Answer: Its IC50 is 19 µM.

Question: What about the IC50 (Acetylcholinesterase) of the same molecule?
Answer: The IC50 was 13 µM.
